# Test results taken from US11154551B2, “HDAC1,2 inhibitors and methods of using the same” (UNIVERSITY OF UTAH RESEARCH FOUNDATION, priority 2014, dated 2021).
# Key:
# Hdac1,2 = assay: in vitro enzyme assays, IC50 determination (FIG. 17A); type: biochemical
# Description: (A). For IC50 determination, recombinant HDAC enzymes were treated with HDAC1,2 or HDAC3 inhibitors in in vitro HDAC assays. (B). Western blots for H3K23ac using extracts from Pre-B-ALL SupB15 cells treated with increasing dose of HDAC1,2 inhibitor (ACY1035). (C). Hdac1^FI/FI, 2^FI/FI cells were infected with Ad-Cre virus to delete HDAC1 and HDAC2 (HDAC1,2 null) or uninfected (WT). (D). Hdac3^FI/FI cells were either uninfected (WT) or infected with Ad-Cre virus to delete Hdac3. HDAC3-null cells were treated with DMSO or the HDAC1,2 selective inhibitor.
# We have determined 2 μM (FIG. 17B) as the minimum dose for the ACY compounds, respectively, that when added to cells increased H3K23ac (a mark targeted by Hdac1,2 but not Hdac3).
# Karpas-422 cells = assay: RNA-seq gene expression analysis; type: cell-based, human; conditions: 24 h
# [1] = test system: Karpas-422, SUDHL4, WSU-DLCL2 and HeLa cells; assay: laser micro-irradiation repair assay, H3K27me3 at break sites; type: cell-based, human; conditions: 15 min recovery, vs DMSO
# Description: Following DMSO or ACY-957 treatment, cells were exposed to a 5Gy dose of ionizing radiation and allowed to recover for 30 minutes prior to chromatin extraction. Western blots were performed with anti-H3K27ac or anti-H3K27me3 with histone H3 serving as a loading control. (B-E): Karpas-422, SUDHL4, WSU-DLCL2 and HeLa cells were laser micro-irradiated and allowed to recover for 15 minutes before fixation and immunofluorescence staining with anti-γH2AX and anti-H3K27me3. Subsequently, the percentage of cells with H3K27me3 lines that co-localized with γH2AX were counted. Merge is the overlay of γH2AX and H3K27me3 pictures. (F-I): At least 100 cells with γH2AX lines were counted in each experiment. The quantitation shown was the average calculated from independent experiments+/−standard error. Quantitation from five, seven, five and six independent experiments performed in Karpas-422, SUDHL4, WSU-DLCL2 and HeLa cells, respectively, was used in the graph shown in this figure. […]
# (A) Measurement of repair efficiency in SUDHL5 (EZH2^WT) and Karpas-422 (EZH2^GOF) cells using neutral comet assay that detects only double-strand breaks (DSBs). […] H3K27me3, γH2AX, Bmi-1, and serine2-phosphorylated RNA Polymerase II (engaged in transcriptional elongation) were monitored at laser break sites (arrows) after 15 minutes of recovery time. […]
# [2] = test system: Karpas-422 (EZH2GOF) cells; assay: neutral comet assay of DSB repair; type: cell-based, human
# Excerpt: (A) Measurement of repair efficiency in SUDHL5 (EZH2^WT) and Karpas-422 (EZH2^GOF) cells using neutral comet assay that detects only double-strand breaks (DSBs). In the comet, the head (H) represents intact DNA and the tail (T) represents the number of DSBs in a single cell. Tail moment is a measure of length and intensity of DNA in the tail, and the average tail moments from 100 comets are indicated within the figure for each cell/treatment combination. Doxo indicates doxorubicin; H121N indicates HDAC1,2 inhibitor. (B) DNA damage in EZH2GOF cells following knockdown of HDAC1,2 using siRNA. NT indicates non-targeting control siRNA; HDAC1,2 siRNA indicates combined treatment with HDAC1 siRNA and HDAC2 siRNA. (C) Karpas-422 cells treated with DMSO solvent or HDAC1,2 inhibitor were subjected to microlaser irradiation. H3K27me3, γH2AX, Bmi-1, and serine2-phosphorylated RNA Polymerase II (engaged in transcriptional elongation) were monitored at laser break sites (arrows) after 15 minutes of recovery time. Numbers overlaying the images indicate percentages of cells with γH2AX lines that co-localized with H3K27me3, Bmi-1, or Pol2Ser2-P lines from at least four independent experiments (p value<0.01).
# Indeed, EZH2, H3K27me3, and HDAC1,2 all localize to sites of DNA breaks, which links them to DNA repair. […]
# [3] = test system: glioma cell lines U-87 and U-251; assay: propidium iodide FACS cell cycle analysis; type: cell-based; conditions: 2 μM, 72 hours
# Description: Cells were treated with ACY957 or DMSO for 72 hours, stained with propidium iodide, and assessed by FACS. The percentage of cells in Sub-G1, G1, S, and G2-M phases were quantified for each sample.
# Glioma is a type of primary brain tumor that originates in the glial cells present in the brain or spinal cord. The glioma cell lines U-87 and U-251 were treated with either DMSO or 2 μM ACY957 for 72 hours and then subjected to propidium iodide staining and FACS analysis to evaluate cell cycle progression.
compound,measurement,setting,value
"Nc1ccc(-c2cccs2)cc1NC(=O)c1ccc2nc(N3CCNCC3)ccc2c1 [ACY-957, N-(2-amino-5-(thiophen-2-yl)phenyl)-2-(piperazin-1-yl)quinoline-6-carboxamide]","inhibition of Hdac1,2 activities compared to Hdac3 (IC50 values)","Hdac1,2",very selectively
same,number of genes up regulated,"Karpas-422 cells; 2 μM, vs DMSO",492 genes
same,BLIMP1 expression up regulation,Karpas-422 cells; DESeq analysis of RNA-seq,1.7 fold
same,H3K27me3 at laser-induced break sites,[1],reduced the extent of H3K27me3 present at laser-induced break sites
same,H3K27me3 at laser-induced break sites,[1]; listed as ACY957,abolished
same,"DSBs, comet tail moment",[2],increase in comet tail moment
same,effect on the cell cycle,[3],No effect on the cell cycle
